This note sets out measurements from ChEMBL document CHEMBL1137427, “Efforts toward oral bioavailability in factor VIIa inhibitors” (Bioorg Med Chem Lett, 2006).

In data set [1] the target is T1, Coagulation factor VII (Homo sapiens, UniProt P08709).
T1 sequence (P08709 whole entry): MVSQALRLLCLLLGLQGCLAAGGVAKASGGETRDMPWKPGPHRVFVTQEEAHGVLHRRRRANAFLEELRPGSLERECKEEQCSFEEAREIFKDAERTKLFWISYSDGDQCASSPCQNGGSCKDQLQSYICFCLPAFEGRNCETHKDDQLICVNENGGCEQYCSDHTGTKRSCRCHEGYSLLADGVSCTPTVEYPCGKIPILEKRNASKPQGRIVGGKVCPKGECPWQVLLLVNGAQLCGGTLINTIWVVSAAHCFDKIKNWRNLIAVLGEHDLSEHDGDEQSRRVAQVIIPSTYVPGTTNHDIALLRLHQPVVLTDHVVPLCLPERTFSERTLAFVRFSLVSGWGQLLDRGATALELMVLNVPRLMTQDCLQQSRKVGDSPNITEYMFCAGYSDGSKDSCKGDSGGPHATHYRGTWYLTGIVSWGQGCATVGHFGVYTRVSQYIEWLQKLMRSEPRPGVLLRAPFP

Data set [2] is described as follows: Mean residence time in iv dosed rat. Particulars: in vivo. The format is ADME, organism-based.
Data set [3] deals with Coagulation factor VII/tissue factor (Homo sapiens) (UniProt P08709+P13726). Particulars: Plasma.
Description: Anticoagulant potency in human plasma as measured by prothrombin time
The nature of data set [4]: Mean residence time in iv dosed Sprague-Dawley rat. Format: ADME, organism-based. Particulars: in vivo.
The nature of data set [5]: Cmax in portal vein catheter of Sprague-Dawley rat at 10 mg/kg, po. The format is ADME, organism-based. Details: dose 10 mg/kg, route oral. Particulars: in vivo.
The nature of data set [6]: Tmax in portal vein catheter of Sprague-Dawley rat at 10 mg/kg, po. Format: ADME, organism-based. Details: dose 10 mg/kg, route oral. Particulars: in vivo.
The nature of data set [7]: AUC in portal vein catheter of Sprague-Dawley rat at 10 mg/kg, po. Format: ADME, organism-based. Details: dose 10 mg/kg, route oral. Particulars: plasma.
Data set [8] can be described thus: Terminal half life in portal vein catheter of Sprague-Dawley rat at 10 mg/kg, po. The format is ADME, organism-based. Details: dose 10 mg/kg, route oral. Particulars: in vivo.
The nature of data set [9]: Oral absorption in Sprague-Dawley rat at 10 mg/kg, po (AUC po, pv/AUC iv, jv). Format: ADME, organism-based. Details: dose 10 mg/kg, route oral. Particulars: in vivo.
Data set [10] is described as follows: Oral bioavailability in Sprague-Dawley rat at 10 mg/kg, po (AUC po, jv/AUC iv, jv). Format: ADME, organism-based. Particulars: in vivo.
The nature of data set [11]: Cmax in jugular vein catheter of Sprague-Dawley rat at 10 mg/kg, po. Details: dose 10 mg/kg, route oral. Particulars: in vivo. Format: ADME, organism-based.
A short description of data set [12]: Tmax in jugular vein catheter of Sprague-Dawley rat at 10 mg/kg, po. Format: ADME, organism-based. Details: dose 10 mg/kg, route oral. Particulars: in vivo.
The nature of data set [13]: AUC in jugular vein catheter of Sprague-Dawley rat at 10 mg/kg, po. Format: ADME, organism-based. Details: dose 10 mg/kg, route oral. Particulars: plasma.
Data set [14] is described as follows: Terminal half life in jugular vein catheter of Sprague-Dawley rat at 10 mg/kg, po. Format: ADME, organism-based. Particulars: in vivo. Details: dose 10 mg/kg, route oral.

In general, Ki refers to a measure of affinity in units of concentration, obtained from inhibition or displacement. A word on the MRT: it is the average time that molecules of a dose stay in the body. As to `N=C(N)c1ccc2[nH]c(-c3cc(C(CC(=O)O)C(=O)O)cc(-c4cc(CNC(N)=O)ccc4O)c3O)nc2c1` (centres undefined), the Ki in data set [1] is 1 nM. The MRT in data set [2] was greater than 60 min. The 2PT in data set [3] amounted to 1.9 µM.

In [1], `N=C(N)c1ccc2[nH]c(-c3cc(F)cc(-c4cc(CNC(N)=O)ccc4O)c3O)nc2c1` registered a Ki of 5 nM. This molecule also returned an MRT in data set [2] of less than 20 min. The molecule also yielded a 2PT in data set [3] of 2.5 µM.

In the case of `Cc1cc(-c2nc3cc(C(=N)N)ccc3[nH]2)c(O)c(-c2cc(CNC(N)=O)ccc2O)c1`, the affinity in data set [1] corresponds to a Ki of 4 nM. Also, the mean residence time (MRT) in data set [2] was less than 20 min. Besides, in data set [3], the 2PT stood at 2 µM.

Take `N=C(N)c1ccc2[nH]c(-c3cc(CC(=O)O)cc(-c4cc(CNC(N)=O)ccc4O)c3O)nc2c1`: in data set [1], the affinity, expressed as Ki, was 14 nM. Further, the mean residence time MRT in data set [2] was less than 20 min.

Turning to `N=C(N)c1ccc2[nH]c(-c3cccc(-c4cc(CNC(=O)N5CCOCC5)ccc4O)c3O)cc2c1`, the affinity in data set [1], expressed as Ki, was 17 nM. Besides, in data set [3], the 2PT worked out at 2 µM.

Consider `N=C(N)c1ccc2[nH]c(-c3cccc(-c4cc(CNC(=O)CO)ccc4O)c3O)cc2c1`, for which the affinity in data set [1], expressed as Ki, was 3 nM. In data set [4], this molecule gave an MRT of 117 min. The 2PT in data set [3] came out at 0.9 µM.

As for `CC(=O)NCc1ccc(O)c(-c2cccc(-c3cc4cc(C(=N)N)ccc4[nH]3)c2O)c1`, in [1], the Ki came out at 120 nM.

The Cmax is the highest concentration seen after dosing. For orientation: Tmax means the time from dosing to the highest level. By AUC is commonly meant concentration integrated over time. As usually defined, the half-life is how long it takes for the measured level to halve. The bioavailability is dose-corrected exposure relative to a reference, in per cent. A higher bioavailability goes with much systemic uptake. Consider `CCCCCC(=O)NCc1ccc(O)c(-c2cccc(-c3cc4cc(C(=N)NO)ccc4[nH]3)c2O)c1`, for which the Cmax in data set [5] was determined as 1310 nM; in data set [11], 1730 nM. Also, the Tmax in [6] is 31 min; in [12], 30 min. The exposure (AUC) in data set [7] is 2.03 µM·h; in data set [13], 2.4 µM·h. Also, the half-life came out at 49 min in [8] and 54 min in data set [14]. The same molecule showed a Fa in data set [9] of 9%. Also, the bioavailability in [10] came out at 11%.

As for `N=C(N)c1ccc2[nH]c(-c3cccc(-c4cc(CNC(N)=O)ccc4O)c3O)nc2c1`, the Ki in data set [1] is 14 nM. The molecule further gave an MRT in data set [2] of 20 min. In [3], this molecule yielded a 2PT of 2.3 µM.

On to `CN(C)CCCC(=O)NCc1ccc(O)c(-c2cccc(-c3cc4cc(C(=N)N)ccc4[nH]3)c2O)c1`, for which affinity in data set [1] was put at a Ki of 16 nM. The molecule also had a mean residence time (MRT) in data set [4] of 50 min. In addition, in data set [3], the 2PT was 0.9 µM.

On to `CCCCCC(=O)NCc1ccc(O)c(-c2cccc(-c3cc4cc(C(=N)N)ccc4[nH]3)c2O)c1`, for which, in data set [1], the affinity, expressed as Ki, was 13 nM. Besides, the MRT in data set [4] was 89 min. Also, the Cmax was 14 nM in [5] and 12 nM in data set [11]. For the same molecule, the results for the Tmax in data set [6] and in [12] were 40 min and 30 min, respectively. The area under the curve (AUC) in [7] was 0.0147 µM·h; in data set [13], 0.0122 µM·h. The half-life is 26 min in data set [8] and 37 min in [14]. Besides, the 2PT in [3] worked out at 1.4 µM.
